Experimental findings from BindingDB's records for doi:10.1016/j.bmc.2005.09.061 (Fujisawa Pharmaceutical, 2006) are described below.

The target in assay [1] is Poly [ADP-ribose] polymerase 1 (Homo sapiens, UniProt P09874). Kind of assay: PARP Enzyme Inhibition Assay. The conditions noted are these: pH 8; 23 °C. The protocol:
(§1) To assess the inhibitory activity of novel inhibitors, the PARP enzyme assay was carried out in reaction mixture consisting of activated salmon testes DNA, [adenylate-32P]-NAD, recombinant PARP enzyme, and various concentrations of PARP inhibitors. The reaction mixture was incubated at room temperature for 15 min, and the reaction was terminated by adding trichloroacetic acid. The precipitate was transferred onto GF/B filter. After the filter was washed and dried, the radioactivity was determined by liquid scintillation counting. IC50 values were calculated from the concentration dependence of the inhibition curves by using computer-assisted non-linear regression analyses.

Assay [2] deals with Poly [ADP-ribose] polymerase 2 (Mus musculus, UniProt O88554). The assay is described as follows: PARP Enzyme Inhibition Assay. The conditions noted are these: 25 °C. Here is the method: as §1
Chain of Poly [ADP-ribose] polymerase 2 (O88554 whole entry): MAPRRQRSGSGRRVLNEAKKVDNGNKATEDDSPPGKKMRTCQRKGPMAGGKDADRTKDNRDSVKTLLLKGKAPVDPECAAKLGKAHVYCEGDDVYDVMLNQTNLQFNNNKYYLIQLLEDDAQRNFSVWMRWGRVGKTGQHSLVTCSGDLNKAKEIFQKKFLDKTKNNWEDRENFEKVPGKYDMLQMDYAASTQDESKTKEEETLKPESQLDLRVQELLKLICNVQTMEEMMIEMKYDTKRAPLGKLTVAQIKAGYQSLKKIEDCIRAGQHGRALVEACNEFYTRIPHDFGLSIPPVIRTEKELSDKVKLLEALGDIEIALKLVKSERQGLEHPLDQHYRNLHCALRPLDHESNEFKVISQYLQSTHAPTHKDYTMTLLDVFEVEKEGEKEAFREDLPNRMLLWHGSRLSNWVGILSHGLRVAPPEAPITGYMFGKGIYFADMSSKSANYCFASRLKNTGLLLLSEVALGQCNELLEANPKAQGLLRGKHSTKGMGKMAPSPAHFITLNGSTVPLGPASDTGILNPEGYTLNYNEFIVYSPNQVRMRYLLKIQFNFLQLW

Chain of Poly [ADP-ribose] polymerase 1 (P09874 whole entry): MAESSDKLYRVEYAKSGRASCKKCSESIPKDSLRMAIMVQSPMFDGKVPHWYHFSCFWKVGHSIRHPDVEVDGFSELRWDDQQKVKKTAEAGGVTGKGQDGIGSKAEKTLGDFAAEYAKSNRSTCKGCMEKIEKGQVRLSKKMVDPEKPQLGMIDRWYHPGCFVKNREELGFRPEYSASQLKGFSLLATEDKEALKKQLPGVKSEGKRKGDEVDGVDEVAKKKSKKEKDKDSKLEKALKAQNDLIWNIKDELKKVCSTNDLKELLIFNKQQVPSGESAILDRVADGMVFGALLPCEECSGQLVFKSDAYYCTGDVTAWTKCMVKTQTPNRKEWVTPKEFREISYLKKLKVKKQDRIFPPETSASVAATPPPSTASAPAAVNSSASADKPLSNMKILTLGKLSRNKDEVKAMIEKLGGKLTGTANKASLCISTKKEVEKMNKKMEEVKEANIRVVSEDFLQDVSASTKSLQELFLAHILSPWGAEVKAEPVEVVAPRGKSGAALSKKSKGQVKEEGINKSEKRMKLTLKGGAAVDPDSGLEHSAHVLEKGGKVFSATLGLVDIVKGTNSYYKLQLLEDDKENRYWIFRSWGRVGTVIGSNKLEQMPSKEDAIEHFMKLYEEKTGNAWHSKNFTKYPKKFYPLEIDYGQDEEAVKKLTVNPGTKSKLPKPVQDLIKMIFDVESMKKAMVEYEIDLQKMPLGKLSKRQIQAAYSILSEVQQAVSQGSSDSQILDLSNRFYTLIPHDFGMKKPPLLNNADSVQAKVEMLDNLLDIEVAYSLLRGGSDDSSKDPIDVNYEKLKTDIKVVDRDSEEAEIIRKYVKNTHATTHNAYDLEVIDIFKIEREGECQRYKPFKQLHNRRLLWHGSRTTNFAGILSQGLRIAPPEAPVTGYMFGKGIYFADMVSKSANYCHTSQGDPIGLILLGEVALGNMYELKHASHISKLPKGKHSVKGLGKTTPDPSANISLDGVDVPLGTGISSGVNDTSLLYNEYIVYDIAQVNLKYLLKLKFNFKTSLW

A word on the IC50: it is the concentration that gives 50% inhibition. As to `O=c1[nH]nc(CCCCN2CC=C(c3ccc(F)cc3)CC2)c2ccccc12` [4-{4-[4-(4-fluorophenyl)-1,2,3,6-tetrahydropyridin-1-yl]butyl}-1,2-dihydrophthalazin-1-one], the concentration for half-maximal inhibition (IC50) worked out at 0.049 µM in assay [1] and 0.084 µM in assay [2]. Taken in the same sequence, the figures for `O=c1[nH]c(CCCN2CCN(c3ccc(Cl)cc3)CC2)nc2ccccc12` [2-{3-[4-(4-chlorophenyl)piperazin-1-yl]propyl}-3,4-dihydroquinazolin-4-one] were 0.011 µM and 0.3 µM. Taken in the same sequence, the figures for `O=c1[nH]c2ccc(CCCN3CC=C(c4ccccc4)CC3)cc2c2ccccc12` were 0.082 µM and 0.084 µM. As for `O=c1[nH]c(CCCN2CC=C(c3ccccc3)CC2)nc2c(Cl)cccc12`, the values for the IC50 in assay [1] and in assay [2] were 0.023 µM and 0.61 µM, respectively.

`O=c1[nH]c(CCCN2CC=C(c3ccc(F)cc3)CC2)nc2c(Cl)cccc12` [8-chloro-2-{3-[4-(4-fluorophenyl)-1,2,3,6-tetrahydropyridin-1-yl]propyl}-3,4-dihydroquinazolin-4-one]: the IC50 in assay [2] worked out at 0.5 µM. In other words, the sub-micromolar range. Regarding `NC(=O)c1cccc2ncc(-c3ccc(Cl)cc3)nc12` [3-(4-chlorophenyl)quinoxaline-5-carboxamide], the IC50 in assay [1] turned out to be 0.033 µM; in assay [2], 0.007 µM. Take `COc1ccc(-c2cnc3cccc(C(N)=O)c3n2)cc1`: the IC50 in assay [1] was 0.071 µM; in assay [2], 0.008 µM. Regarding `O=c1[nH]nc(CCCCN2CC=C(c3ccccc3)CC2)c2ccccc12` [4-[4-(4-Phenyl-3,6-dihydro-2H-pyridin-1-yl)-butyl]-2H-phthalazin-1-one], the values for the IC50 in assay [1] and in assay [2] were 0.12 µM and 0.09 µM, respectively.

`O=c1[nH]c(=O)n(CCCCN2CC=C(c3ccccc3)CC2)c2ccccc12` [1-[4-(4-phenyl-1,2,3,6-tetrahydropyridin-1-yl)butyl]-1,2,3,4-tetrahydroquinazoline-2,4-dione]: the IC50 in assay [1] worked out at 0.12 µM; in assay [2], 0.07 µM. Taken in the same sequence, the figures for `Cc1cccc2c(=O)[nH]c(CCCN3CC=C(c4ccc(F)cc4)CC3)nc12` were 0.016 µM and 0.167 µM. As to `NC(=O)c1cccc(N)c1`, the IC50 in assay [2] is 9.81 µM. This counts as single-digit micromolar. In the case of `N#Cc1ccc(-c2cnc3cccc(C(N)=O)c3n2)cc1`, the IC50 in assay [1] came to 0.101 µM; in assay [2] it was 0.008 µM. Taken in the same sequence, the figures for `NC(=O)c1cccc2ncc(-c3ccc(C(F)(F)F)cc3)nc12` were 0.118 µM and 0.011 µM.

`O=c1[nH]c(=O)n(CCCCC2CC=C(c3ccccc3)CC2)c2cccc(F)c12` (stereo unspecified) [5-fluoro-1-[4-(4-phenylcyclohex-3-en-1-yl)butyl]-1,2,3,4-tetrahydroquinazoline-2,4-dione] came in with an IC50 in assay [1] above 1 µM. Regarding `O=c1[nH]c(CCCN2CC=C(c3ccccc3)CC2)nc2ccccc12` [2-[3-(4-phenyl-1,2,3,6-tetrahydropyridin-1-yl)propyl]-3,4-dihydroquinazolin-4-one], the values for the half-maximal inhibitory concentration (IC50) in assay [1] and in assay [2] were 0.021 µM and 0.608 µM, respectively. `NC(=O)c1cccc2ncc(-c3ccccc3)nc12` [3-phenylquinoxaline-5-carboxamide]: the IC50 in assay [1] was determined as 0.131 µM; in assay [2] it was 0.014 µM. In the case of `Cc1nc2cccc(Cl)c2c(=O)[nH]1` [5-chloro-2-methyl-3,4-dihydroquinazolin-4-one], half-maximal inhibition in assay [2] (IC50) required 0.66 µM.

`N#Cc1ccc(C2=CCN(CCCc3nc4c(Cl)cccc4c(=O)[nH]3)CC2)cc1`: the IC50 worked out at 0.003 µM in assay [1] and 0.087 µM in assay [2]. Taken in the same sequence, the figures for `NC(=O)c1cccc2ncc(-c3ccc(N)cc3)nc12` [3-(4-aminophenyl)quinoxaline-5-carboxamide] were 0.087 µM and 0.009 µM. Taken in the same sequence, the figures for `O=c1[nH]c(CCCN2CC=C(c3ccccc3)CC2)nc2cccc(Cl)c12` [5-Chloro-2-[3-(4-phenyl-3,6-dihydro-2H-pyridin-1-yl)-propyl]-3H-quinazolin-4-one] were 0.068 µM and 0.63 µM.
